# According to patent US20240124434A1, “ATF6 INHIBITORS AND USES THEREOF” (Altos Labs, Inc., priority 2018, published 2024):
# Read-outs that look alike come from different tables or passages of the source.
# Assays:
# [1] = In vitro microsomal stability, human liver microsomes; assay type: in vitro ADME; conditions: for half-life at […], 1 µM / half-life at 1 μM: human, read-out: T1/2 @ hLM; for Rem. @ hLM (%): remaining fraction after 30 min, 1 μM compound, 0.5 mg/mL human liver microsomes, 1 mM NADPH
# Description: (§1) Compounds were incubated at a final concentration of 1 μM with 0.5 mg/mL human liver microsomes (hLM) (#HMMCPL; Thermo), mouse liver microsomes (mLM) (#MSMCPL; Thermo) or rat liver microsomes (rLM) (#RTMCPL; Thermo) and 1 mM reduced dihydronicotinamide-adenine dinucleotide phosphate (NADPH) (#N1630; Sigma) in 100 mM phosphate buffer (pH 7.4) at 37° C. The reactions were terminated at 0, 5, 15 and 30 min by the addition of cold acetonitrile containing 50 ng/mL propranolol as an internal standard. […] Verapamil hydrochloride (#V4369 Aldrich) was used as a positive control in all studies.
# [2] = In vitro microsomal stability, mouse liver microsomes; assay type: in vitro ADME; conditions: for half-life at 1 μM / half-life at […], 1 µM: mouse, read-out: T1/2 @ mLM; for Rem. @ mLM (%): remaining fraction after 30 min, 1 μM compound, 0.5 mg/mL mouse liver microsomes, 1 mM NADPH
# Description: as §1
# [3] = test system: ATF6; assay: ERSE ATF6-luciferase reporter assay (thapsigargin-induced ER stress); assay type: cell-based, human; conditions: Homo sapiens, U2OS, thapsigargin-induced ER stress, U2-OS ATF6 luc reporter cells; for inhibition at 1 µM: 8 h, 8 hr
# [4] = target: CYP3A4 (Homo sapiens (Human), UniProt P08684); assay: CYP inhibition in human liver microsomes; conditions: read-out: CYP-3A4; human liver microsomes; probe substrate midazolam
# Sequence of CYP3A4 (P08684 whole entry, canonical isoform): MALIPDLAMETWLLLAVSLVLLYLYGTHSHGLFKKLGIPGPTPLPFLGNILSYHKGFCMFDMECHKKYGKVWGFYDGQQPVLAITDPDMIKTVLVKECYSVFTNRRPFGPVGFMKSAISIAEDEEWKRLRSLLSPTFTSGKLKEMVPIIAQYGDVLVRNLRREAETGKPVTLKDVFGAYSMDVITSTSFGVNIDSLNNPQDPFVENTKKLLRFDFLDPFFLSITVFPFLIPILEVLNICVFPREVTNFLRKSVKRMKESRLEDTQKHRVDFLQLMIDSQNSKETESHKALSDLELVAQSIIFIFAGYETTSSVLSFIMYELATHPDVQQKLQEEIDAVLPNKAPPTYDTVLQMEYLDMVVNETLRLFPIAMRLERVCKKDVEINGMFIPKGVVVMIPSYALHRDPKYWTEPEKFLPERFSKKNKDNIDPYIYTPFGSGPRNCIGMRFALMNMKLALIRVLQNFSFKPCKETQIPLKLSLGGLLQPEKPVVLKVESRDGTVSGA
# Description: (§2) CYP inhibition by test compounds in human liver microsomes (HLM) for seven major CYP450 isoforms CYP1A2, CYP2C9, CYP2D6, CYP2B6, CYP2C8, CYP2C19 and CYP3A4 were assessed. […] 50 μM phenacetin, 2 μM midazolam, 5 μM diclofenac, 50 μM mephenytoin, 80 μM bupropion, and 5 μM dextromethorphan were used as probe substrates of CYP1A2, CYP3A4, CYP2C9, CYP2C19, CYP2B6, and CYP2D6, respectively. The incubation times were 20 min for […], CYP2D6, CYP2C9, CYP2B6, and CYP2C8; 40 min for CYP2C19; and 10 min for CYP 3A4. Following incubations, the reactions were terminated with acetonitrile containing internal standard. The samples were centrifuged and the supernatants were analyzed for the formation of metabolites (1-hydroxymidazolam (CYP3A4), 4-hydroxydiclofenac (CYP2C9), 4-hydroxymephenytoin (CYP2C19) and dextrorphan (CYP2D6), hydroxybupropion (CYP2B6), acetaminophen (CYP1A2), desethylamodiaquine (CYP2C8)) by LC/MS/MS.
# [5] = target: CYP2C9 (Homo sapiens (Human), UniProt P11712); assay: CYP inhibition in human liver microsomes; conditions: read-out: CYP-2C9; human liver microsomes; probe substrate diclofenac
# Sequence of CYP2C9 (P11712 whole entry): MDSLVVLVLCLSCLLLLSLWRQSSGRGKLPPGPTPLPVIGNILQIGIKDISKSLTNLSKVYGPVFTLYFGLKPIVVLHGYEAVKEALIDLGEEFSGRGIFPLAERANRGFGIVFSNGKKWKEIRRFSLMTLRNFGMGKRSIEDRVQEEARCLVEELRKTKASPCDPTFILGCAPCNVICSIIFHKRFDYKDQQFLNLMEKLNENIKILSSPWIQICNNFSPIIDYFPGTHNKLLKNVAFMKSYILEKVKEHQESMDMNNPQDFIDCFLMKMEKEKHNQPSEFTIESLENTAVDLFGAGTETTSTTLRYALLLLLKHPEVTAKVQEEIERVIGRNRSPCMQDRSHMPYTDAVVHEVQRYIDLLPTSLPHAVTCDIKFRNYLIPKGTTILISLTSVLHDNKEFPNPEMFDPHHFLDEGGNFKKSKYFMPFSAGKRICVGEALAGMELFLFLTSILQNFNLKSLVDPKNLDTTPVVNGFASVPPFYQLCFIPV
# Description: as §2
# [6] = target: CYP2C8 (Homo sapiens (Human), UniProt P10632); assay: CYP inhibition in human liver microsomes; conditions: read-out: CYP-2C8, metabolite desethylamodiaquine
# Sequence of CYP2C8 (P10632 whole entry): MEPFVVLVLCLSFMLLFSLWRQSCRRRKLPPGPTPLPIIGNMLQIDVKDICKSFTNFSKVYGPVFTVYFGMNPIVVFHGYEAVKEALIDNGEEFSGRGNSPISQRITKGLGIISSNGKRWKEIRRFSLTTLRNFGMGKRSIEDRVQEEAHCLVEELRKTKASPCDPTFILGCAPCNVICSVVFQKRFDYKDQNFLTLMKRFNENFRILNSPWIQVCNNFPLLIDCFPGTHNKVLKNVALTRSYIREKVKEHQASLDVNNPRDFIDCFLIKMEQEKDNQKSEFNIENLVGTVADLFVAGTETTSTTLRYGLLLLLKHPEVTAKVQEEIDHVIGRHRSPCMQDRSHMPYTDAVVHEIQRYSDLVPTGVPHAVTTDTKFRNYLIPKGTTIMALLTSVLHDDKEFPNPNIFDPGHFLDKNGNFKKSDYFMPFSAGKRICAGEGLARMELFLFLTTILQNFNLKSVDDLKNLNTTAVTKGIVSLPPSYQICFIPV
# Description: as §2
# [7] = target: CYP2B6 (Homo sapiens (Human), UniProt P20813); assay: CYP inhibition in human liver microsomes; conditions: read-out: CYP-2B6; human liver microsomes; probe substrate bupropion
# Sequence of CYP2B6 (P20813 whole entry): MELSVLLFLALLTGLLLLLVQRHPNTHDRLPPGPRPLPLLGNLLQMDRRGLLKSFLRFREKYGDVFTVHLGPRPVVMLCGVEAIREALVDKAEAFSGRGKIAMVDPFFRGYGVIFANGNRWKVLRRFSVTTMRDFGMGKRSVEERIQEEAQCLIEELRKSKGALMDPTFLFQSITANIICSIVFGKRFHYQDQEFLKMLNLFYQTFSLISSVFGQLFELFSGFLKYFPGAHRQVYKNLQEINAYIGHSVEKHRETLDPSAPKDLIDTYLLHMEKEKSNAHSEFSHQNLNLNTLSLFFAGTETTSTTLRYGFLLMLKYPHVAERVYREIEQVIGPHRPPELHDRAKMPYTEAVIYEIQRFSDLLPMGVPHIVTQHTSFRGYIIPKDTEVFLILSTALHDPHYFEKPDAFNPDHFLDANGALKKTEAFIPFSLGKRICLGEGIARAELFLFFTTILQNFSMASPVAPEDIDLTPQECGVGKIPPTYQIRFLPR
# Description: as §2
# [8] = target: CYP2D6 (Homo sapiens (Human), UniProt P10635); assay: CYP inhibition in human liver microsomes; conditions: read-out: CYP-2D6; human liver microsomes; probe substrate dextromethorphan
# Sequence of CYP2D6 (P10635 whole entry): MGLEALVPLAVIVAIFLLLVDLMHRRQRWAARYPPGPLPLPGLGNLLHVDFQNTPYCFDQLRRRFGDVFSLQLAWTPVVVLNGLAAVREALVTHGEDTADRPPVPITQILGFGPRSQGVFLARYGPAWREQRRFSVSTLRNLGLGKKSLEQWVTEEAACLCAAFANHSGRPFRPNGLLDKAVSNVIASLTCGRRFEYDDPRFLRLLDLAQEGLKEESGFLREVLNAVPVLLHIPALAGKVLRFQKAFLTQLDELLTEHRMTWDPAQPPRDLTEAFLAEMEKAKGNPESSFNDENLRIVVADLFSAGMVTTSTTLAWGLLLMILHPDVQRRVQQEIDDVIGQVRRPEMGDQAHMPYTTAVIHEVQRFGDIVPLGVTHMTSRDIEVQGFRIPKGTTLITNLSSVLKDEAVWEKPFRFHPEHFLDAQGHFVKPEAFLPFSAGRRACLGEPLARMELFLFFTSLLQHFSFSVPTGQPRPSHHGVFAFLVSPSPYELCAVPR
# Description: as §2
# [9] = target: CYP2C19 (Homo sapiens (Human), UniProt P33261); assay: CYP inhibition in human liver microsomes; conditions: read-out: CYP-2C19; human liver microsomes; probe substrate mephenytoin
# Sequence of CYP2C19 (P33261 whole entry): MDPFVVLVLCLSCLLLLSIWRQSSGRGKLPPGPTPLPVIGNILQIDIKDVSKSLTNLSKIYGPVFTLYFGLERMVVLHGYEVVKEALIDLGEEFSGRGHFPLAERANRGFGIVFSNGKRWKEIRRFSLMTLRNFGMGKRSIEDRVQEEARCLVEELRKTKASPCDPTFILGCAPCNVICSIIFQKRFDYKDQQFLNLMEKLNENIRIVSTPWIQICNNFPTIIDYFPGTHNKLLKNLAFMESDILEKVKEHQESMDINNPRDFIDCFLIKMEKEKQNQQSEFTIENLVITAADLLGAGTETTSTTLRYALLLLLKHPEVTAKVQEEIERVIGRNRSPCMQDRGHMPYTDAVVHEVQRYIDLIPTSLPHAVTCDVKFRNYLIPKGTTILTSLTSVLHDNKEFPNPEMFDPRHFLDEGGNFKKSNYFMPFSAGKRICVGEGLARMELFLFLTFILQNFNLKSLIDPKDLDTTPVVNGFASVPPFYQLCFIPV
# Description: as §2
# [10] = In vitro microsomal stability, rat liver microsomes; assay type: in vitro ADME; conditions: for microsomal CLint at […], 1 µM / microsomal CLint at 1 μM: intrinsic clearance, read-out: Clint @ rLM; for Rem. @ rLM (%): remaining fraction after 30 min, 1 μM compound, 0.5 mg/mL rat liver microsomes, 1 mM NADPH
# Description: as §1
# [11] = Kinetic solubility (nephelometry); assay type: physicochemical; conditions: aqueous buffer, kinetic from dmso stock; PBS pH 7.4, 1% DMSO, 1 hour at 37° C., light scattering at 625 nm
# Description: Concentration (μM) was then calculated by segmental regression. Amiodarone (#A8423 Aldrich) was used as positive control.
# [12] = in vivo; conditions: Balb/c, mouse, po, 10 mg/kg
# Description: (§3) Tested compounds were formulated at 1 mg/mL as a dosing solution for oral administration in vehicle A: 10% dimethylacetamide (DMAC), 20% propylene glycol, and 40% PEG-400 or vehicle B: 10% Kolliphor® EL and 10% ethanol (EtOH).
# (§4) Animals were acclimated for a minimum period of 4 days upon arrival at the testing facility.
# (§5) At the day of study, mice were weighed, identified by marking the tail with numbers using a non-toxic permanent marker, and designated into ten experimental groups (n=3 per group).
# (§6) Non-dosed mice were used to collect samples of zero time points. […] Blood samples were centrifuged immediately at 9,000 g at 4° C. for 5 minutes and then plasmas were separated. Plasma samples were placed into individually labeled cryovials and stored in a −80° C. freezer until LC/MS/MS bioanalysis.
# (§7) The bioanalysis of plasma samples was conducted with a QTRAP 4500 triple quadrupole mass spectrometer (Applied Biosystems SCIEX) in the positive ion mode and interfaced with an Ekspert Ultra LC100 UPLC System (Eksigent). Calibration standards (0.01 to 10 μM) and QCs (0.02, 0.2 and 2.0 μM) were prepared from naïve mouse plasma in parallel with mouse plasma study samples (60 μL) by precipitation with three volumes of ice cold internal standard solution (acetonitrile containing 20 μM of theophylline). The precipitated samples were centrifuged at 6,100 g for 30 min. Following centrifugation, an aliquot of each supernatant was transferred to an autosampler plate and diluted with two volumes of aqueous mobile phase (0.1% formic acid in water). Samples were injected onto a reverse phase analytical column (YMC Triart C18; 2.0×50 mm; 1.9 μm; YMC CO) and eluted with a gradient of 0.1% formic acid in Acetonitrile. Assayed test compound and internal standards were monitored by a multiple reaction monitoring (MRM) experiment using an Analyst software (v1.6.2, Applied Biosystems SCIEX). Quantitation was conducted using a MultiQuant software (v2.1, Applied Biosystems SCIEX) and the resulting calibration curve was fitted with a linear regression and 1/x weighting. The lower limits of quantitation were 1<LLQ <5 ng/mL.
# [13] = mouse, in vivo, po, 10 mg/kg
# Description: as §3, §4, §5, §6, §7
# [14] = pH 7.4, intrinsic clearance, human liver microsomes, read-out: Clint @ hLM
# [15] = pH 7.4, intrinsic clearance, mouse liver microsomes, read-out: Clint @ mLM
# [16] = read-out: Inh. ATF6-Luc @ 1 μM [%], 1 μM test compound
# [17] = read-out: IC50 ATF6-Luc reporter [μM], dose-response 30 μM to 1 nM
# [18] = rat, rat liver microsomes, pH 7.4, read-out: T1/2 @ rLM
# [19] = 1 μM test compound, read-out: Inh. ATF6-Luc @ 1 μM [%]
# [20] = dose-response 30 μM to 1 nM, read-out: IC50 ATF6-Luc reporter
SMILES,"half-life at […], 1 µM ([1]; human liver microsomes, pH 7.4) [min]","microsomal CLint at […], 1 µM [1, 14] [µL/min/mg]",Rem. @ hLM (%) [1] [%],"half-life at 1 μM ([2]; mouse liver microsomes, pH 7.4) [min]","microsomal CLint at […], 1 µM [2, 15] [µL/min/mg]",Rem. @ mLM (%) [2] [%],"inhibition at 1 µM [3, 16] [%]","IC50 [3, 17] [µM]",IC50 [4] [µM],IC50 [5] [µM],IC50 [6] [µM],IC50 [7] [µM],IC50 [8] [µM],"microsomal CLint at […], 1 µM ([10]; pH 7.4, rat liver microsomes) [µL/min/mg]","half-life at 1 μM [10, 18] [min]",Rem. @ rLM (%) [10] [%],solubility kinetic at 1 h [11] [µM],"half-life at 1 μM ([1]; human liver microsomes, pH 7.4) [min]","inhibition at 1 µM [3, 19] [%]","IC50 [3, 20] [µM]",further results
"Cc1c(NC(=O)c2cc(-c3ccco3)on2)cnn1Cc1ccc(C(F)(F)F)cc1C(F)(F)F [Compound 93, N-(1-(2,4-bis(trifluoromethyl)benzyl)-5-methyl-1H-pyrazol-4-yl)-5-(furan-2-yl)isoxazole-3-carboxamide]",76.2,18.2,74.1,40,34.7,51.1,> 50,< 1,> 50,> 50,> 50,> 50,> 50,20.2,68.7,69.8,2.92,–,–,–,IC50 [9]: > 50 µM
"Cc1c(NC(=O)c2cc(-c3ccccn3)on2)cnn1[C@H](C)c1ccc(C(F)(F)F)cc1C(F)(F)F [Compound 97, (R)—N-(1-(1-(2,4-bis(trifluoromethyl)phenyl)ethyl)-5-methyl-1H-pyrazol-4-yl)-5-(pyridin-2-yl)isoxazole-3-carboxamide]",–,25.9,59.3,26.6,52.2,44.5,–,–,–,–,–,–,–,23.6,58.7,64.4,2.92,53.6,25 to 50,1 to 10,–
"Cc1nn([C@@H](C)c2ccc(C(F)(F)F)cc2C(F)(F)F)cc1NC(=O)c1cc(-c2ccccn2)on1 [Compound 100, (S)—N-(1-(1-(2,4-bis(trifluoromethyl)phenyl)ethyl)-3-methyl-1H-pyrazol-4-yl)-5-(pyridin-2-yl)isoxazole-3-carboxamide]",–,36.2,53.3,–,72.6,34.3,> 50,< 1,–,–,–,–,–,33.4,41.5,51.4,4.68,38.2,–,–,"half-life at […], 1 µM ([2]; mouse liver microsomes, pH 7.4): 19.1 min"
"C[C@H](c1ccc(C(F)(F)F)cc1C(F)(F)F)n1cc(NC(=O)c2cc(-c3ncccn3)on2)cn1 [Compound 101, (R)—N-(1-(1-(2,4-bis(trifluoromethyl)phenyl)ethyl)-1H-pyrazol-4-yl)-5-(pyrimidin-2-yl)isoxazole-3-carboxamide]",–,38.5,52.49,36.7,37.7,51.17,–,–,–,–,–,–,–,28.2,49.1,60.62,2.34,36,> 50,< 1,–
"CN(C(=O)c1cc(-c2ccccn2)on1)c1cnn(Cc2ccc(C(F)(F)F)cc2C(F)(F)F)c1 [Compound 103, N-(1-(2,4-bis(trifluoromethyl)benzyl)-1H-pyrazol-4-yl)-N-methyl-5-(pyridin-2-yl)isoxazole-3-carboxamide]",5.38,258,2.1,–,271,0.94,–,–,–,–,–,–,–,–,7.24,5.24,9.37,–,25 to 50,1 to 10,"half-life at […], 1 µM ([2]; mouse liver microsomes, pH 7.4): 5.12 min; microsomal CLint at 1 μM ([10]; pH 7.4, rat liver microsomes): 191 µL/min/mg"
"C[C@H](c1ccc(C(F)(F)F)cc1C(F)(F)F)n1cc(NC(=O)c2cnc(-c3ccccn3)s2)cn1 [Compound 104, (R)—N-(1-(1-(2,4-bis(trifluoromethyl)phenyl)ethyl)-1H-pyrazol-4-yl)-2-(pyridin-2-yl)thiazole-5-carboxamide]",73.2,18.9,76.44,–,12.9,83.18,25 to 50,1 to 10,–,–,–,–,–,–,418,92.9,2.34,–,–,–,"half-life at […], 1 µM ([2]; mouse liver microsomes, pH 7.4): 108 min; microsomal CLint at 1 μM ([10]; pH 7.4, rat liver microsomes): 3.32 µL/min/mg"
"C[C@H](c1ccc(F)cc1C(F)(F)F)n1cc(NC(=O)c2cc(-c3ccccn3)on2)cn1 [Compound 110, (R)—N-(1-(1-(4-fluoro-2-(trifluoromethyl)phenyl)ethyl)-1H-pyrazol-4-yl)-5-(pyridin-2-yl)isoxazole-3-carboxamide]",–,51.3,39.72,14.2,97.7,20.03,–,–,–,–,–,–,–,28.7,48.3,60.99,4.68,27,25 to 50,1 to 10,–
"O=C(Nc1cnn(Cc2ccc(C(F)(F)F)cc2C(F)(F)F)c1)c1cc(-c2ncccn2)on1 [Compound 129, N-(1-(2,4-bis(trifluoromethyl)benzyl)-1H-pyrazol-4-yl)-5-(pyrimidin-2-yl)isoxazole-3-carboxamide]",–,–,68.0,62.6,–,67.9,> 50,< 1,> 50,> 50,> 50,> 50,> 50,12,–,84.5,–,63.2,–,–,"microsomal CLint at 1 μM [1, 14]: 22 µL/min/mg; microsomal CLint at 1 μM [2, 15]: 22 µL/min/mg; IC50 [9]: > 50 µM; half-life at […], 1 µM [10, 18]: 114 min"
"C[C@H](c1ccc(C(F)(F)F)cc1C(F)(F)F)n1cc(NC(=O)c2cc(-c3cnccn3)on2)cn1 [Compound 131, (R)—N-(1-(1-(2,4-bis(trifluoromethyl)phenyl)ethyl)-1H-pyrazol-4-yl)-5-(pyrazin-2-yl)isoxazole-3-carboxamide]",–,–,–,–,–,–,> 50,< 1,> 50,> 50,43.3,44.5,> 50,–,–,–,–,–,–,–,AUC(0-inf) [12]: 107 µg·h/mL; AUC(0-t) [12]: 98.7 µg·h/mL; Cmax [12]: 7030 ng/mL; Tmax [12]: 360 min; half-life [12]: 370 min; IC50 [9]: 16.4 µM; AUCExtr [%] ([13]; Balb/c): 7.75%; F [%] ([13]; Balb/c): 85.9%; Vz ([13]; Balb/c): 0.831 L/kg; Last time point for AUClast [13]: 24 h
